Experimental data taken from ChEMBL document CHEMBL1201862, “PubChem BioAssay data set” (2004).
“And” between values parts separate entries of the source, which are not always exact repeats. Equal values may be shown once.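 Compound exposure: 48 hours, 5 concentrations, 96-well plates. GI50 marks 50% less growth.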 The source made the active and inactive calls. Cut-off read from the data, not from the text of the source: active = GI50 up to about 1.1 µM and inactive = higher.

How the values were obtained:
Test in all cases: DTP human tumour cell line panel, 48 h
DMS-273 = test system: DMS-273
SF-539 = test system: SF-539
HL-60 = test system: HL-60
CAKI-1 = test system: CAKI-1
DMS-114 = test system: DMS-114
HOP-92 = test system: HOP-92
RXF 393 = test system: RXF 393
HT-29 = test system: HT-29
SW-620 = test system: SW-620
HCT-116 = test system: HCT-116
RPMI-8226 = test system: RPMI-8226
NCI-H23 = test system: NCI-H23
CCRF-CEM = test system: CCRF-CEM
M19-MEL = test system: M19-MEL
SNB-75 = test system: SNB-75
HCT-15 = test system: HCT-15
NCI-H522 = test system: NCI-H522
U-251 = test system: U-251
MOLT-4 = test system: MOLT-4
OVCAR-4 = test system: OVCAR-4
M14 = test system: M14
OVCAR-8 = test system: OVCAR-8
LXFL 529 = test system: LXFL 529
SNB-78 = test system: SNB-78
SF-295 = test system: SF-295
NCI-H226 = test system: NCI-H226
OVCAR-3 = test system: OVCAR-3
SK-MEL-28 = test system: SK-MEL-28
EKVX = test system: EKVX
ACHN = test system: ACHN
SR = test system: SR
DLD-1 = test system: DLD-1
TK-10 = test system: TK-10
IGROV-1 = test system: IGROV-1
LOX IMVI = test system: LOX IMVI
786-0 = test system: 786-0
KM12 = test system: KM12
KM-20L2 = test system: KM-20L2
SK-OV-3 = test system: SK-OV-3
SF-268 = test system: SF-268
K562 = test system: K562
A549 = test system: A549
UACC-62 = test system: UACC-62
UACC-257 = test system: UACC-257
SK-MEL-5 = test system: SK-MEL-5
A498 = test system: A498
MDA-MB-231 = test system: MDA-MB-231
BT-549 = test system: BT-549
MCF7 = test system: MCF7
UO-31 = test system: UO-31
Hs-578T = test system: Hs-578T
MDA-N = test system: MDA-N
OVCAR-5 = test system: OVCAR-5
Malme-3M = test system: Malme-3M
HOP-62 = test system: HOP-62
DU-145 = test system: DU-145
MDA-MB-435 = test system: MDA-MB-435
SN12C = test system: SN12C
PC-3 = test system: PC-3
NCI/ADR-RES = test system: NCI/ADR-RES
SK-MEL-2 = test system: SK-MEL-2
HCC 2998 = test system: HCC 2998
NCI-H460 = test system: NCI-H460
T47D = test system: T47D
COLO 205 = test system: COLO 205
SNB-19 = test system: SNB-19

NCCSSC/C=C\CSSCCN
GI50 (DMS-273): 41.1 µM (inactive) and 22 µM (inactive)
GI50 (SF-539): 29.6 µM (inactive) and 18.1 µM (inactive)
GI50 (HL-60): 7.06 µM (inactive) and 14.1 µM (inactive)
GI50 (CAKI-1): 33.7 µM (inactive) and 38.8 µM (inactive)
GI50 (DMS-114): 30.8 µM (inactive) and 20 µM (inactive)
GI50 (HOP-92): 38 µM (inactive) and 41.6 µM (inactive)
GI50 (RXF 393): 54.1 µM (inactive) and 35.9 µM (inactive)
GI50 (HT-29): 26.6 µM (inactive) and 34.6 µM (inactive)
GI50 (SW-620): 16.2 µM (inactive) and 13.5 µM (inactive)
GI50 (HCT-116): 40.3 µM (inactive) and 36.8 µM (inactive)
GI50 (RPMI-8226): 26.2 µM (inactive) and 21.9 µM (inactive)
GI50 (NCI-H23): 29.6 µM (inactive) and 40.7 µM (inactive)
GI50 (CCRF-CEM): 5.56 µM (inactive)
GI50 (M19-MEL): 50.9 µM (inactive) and 29.4 µM (inactive)
GI50 (SNB-75): 34.8 µM (inactive) and > 53.3 µM (inactive)
GI50 (HCT-15): 46.9 µM and 34.3 µM
GI50 (NCI-H522): 15.7 µM (inactive) and 15.5 µM (inactive)
GI50 (U-251): 34.4 µM (inactive) and 20.6 µM (inactive)
GI50 (MOLT-4): 18.6 µM (inactive) and 15.5 µM (inactive)
GI50 (OVCAR-4): 18.8 µM (inactive) and 26.7 µM (inactive)
GI50 (M14): 17.8 µM (inactive) and 31.5 µM (inactive)
GI50 (OVCAR-8): 17.6 µM (inactive) and 27.2 µM (inactive)
GI50 (LXFL 529): 23.9 µM (inactive) and 20.1 µM (inactive)
GI50 (SNB-78): 35.2 µM (inactive) and 28.4 µM (inactive)

N#CC(c1ccc(Cl)cc1)c1c(=O)[nH]c2ccc(N)cc2[n+]1[O-] (stereo not given)
GI50 (DMS-273): > 100 µM (inactive)
GI50 (SF-295): > 100 µM (inactive)
GI50 (SF-539): > 100 µM (inactive)
GI50 (HL-60): > 100 µM (inactive)
GI50 (NCI-H226): > 100 µM (inactive)
GI50 (CAKI-1): > 100 µM (inactive)
GI50 (OVCAR-3): > 100 µM (inactive)
GI50 (HOP-92): > 100 µM (inactive)
GI50 (HT-29): > 100 µM (inactive)
GI50 (SW-620): > 100 µM (inactive)
GI50 (HCT-116): > 100 µM (inactive)
GI50 (RPMI-8226): > 100 µM (inactive)
GI50 (SK-MEL-28): > 100 µM (inactive)
GI50 (CCRF-CEM): > 100 µM (inactive)
GI50 (EKVX): > 100 µM (inactive)
GI50 (ACHN): > 100 µM (inactive)
GI50 (M19-MEL): > 100 µM (inactive)
GI50 (SR): > 100 µM (inactive)
GI50 (SNB-75): > 100 µM (inactive)
GI50 (DLD-1): > 100 µM (inactive)
GI50 (TK-10): > 100 µM (inactive)
GI50 (IGROV-1): > 100 µM (inactive)
GI50 (NCI-H522): > 100 µM (inactive)
GI50 (LOX IMVI): > 100 µM (inactive)
GI50 (786-0): > 100 µM (inactive)
GI50 (KM12): > 100 µM (inactive)
GI50 (KM-20L2): > 100 µM (inactive)
GI50 (SK-OV-3): > 100 µM (inactive)
GI50 (SF-268): > 100 µM (inactive)
GI50 (K562): > 100 µM (inactive)
GI50 (A549): > 100 µM (inactive)
GI50 (UACC-62): > 100 µM (inactive)
GI50 (MOLT-4): > 100 µM (inactive)
GI50 (UACC-257): > 100 µM (inactive)
GI50 (M14): > 100 µM (inactive)
GI50 (SK-MEL-5): > 100 µM (inactive)
GI50 (LXFL 529): > 100 µM (inactive)

O=C(O)CCc1nc2ccccc2[nH]1 [PROCODAZOLE]
GI50 (A498): > 100 µM (inactive)
GI50 (MDA-MB-231): > 100 µM (inactive)
GI50 (BT-549): > 100 µM (inactive)
GI50 (SF-295): > 100 µM (inactive)
GI50 (SF-539): > 100 µM (inactive)
GI50 (MCF7): > 100 µM (inactive)
GI50 (UO-31): > 100 µM (inactive)
GI50 (Hs-578T): > 100 µM (inactive)
GI50 (MDA-N): > 100 µM (inactive)
GI50 (HL-60): > 100 µM (inactive)
GI50 (NCI-H226): > 100 µM (inactive)
GI50 (CAKI-1): > 100 µM (inactive)
GI50 (OVCAR-3): > 100 µM (inactive)
GI50 (OVCAR-5): > 100 µM (inactive)
GI50 (HOP-92): > 100 µM (inactive)
GI50 (RXF 393): > 100 µM (inactive)
GI50 (HT-29): > 100 µM (inactive)
GI50 (SW-620): > 100 µM (inactive)
GI50 (HCT-116): > 100 µM (inactive)
GI50 (Malme-3M): > 100 µM (inactive)
GI50 (RPMI-8226): > 100 µM (inactive)
GI50 (SK-MEL-28): > 100 µM (inactive)
GI50 (NCI-H23): > 100 µM (inactive)
GI50 (CCRF-CEM): > 100 µM (inactive)
GI50 (EKVX): > 100 µM (inactive)
GI50 (ACHN): > 100 µM (inactive)
GI50 (HOP-62): > 100 µM (inactive)
GI50 (SR): > 100 µM (inactive)
GI50 (SNB-75): > 100 µM (inactive)
GI50 (HCT-15): > 100 µM
GI50 (DU-145): > 100 µM (inactive)
GI50 (TK-10): > 100 µM (inactive)
GI50 (IGROV-1): > 100 µM (inactive)
GI50 (NCI-H522): > 100 µM (inactive)
GI50 (LOX IMVI): > 100 µM (inactive)
GI50 (MDA-MB-435): > 100 µM (inactive)
GI50 (SN12C): > 100 µM (inactive)
GI50 (786-0): > 100 µM (inactive)
GI50 (PC-3): > 100 µM (inactive)
GI50 (KM12): > 100 µM (inactive)
GI50 (NCI/ADR-RES): > 100 µM (inactive)
GI50 (SK-MEL-2): > 100 µM (inactive)
GI50 (U-251): > 100 µM (inactive)
GI50 (SK-OV-3): 0.237 µM (active)
GI50 (SF-268): > 100 µM (inactive)
GI50 (K562): > 100 µM (inactive)
GI50 (HCC 2998): > 100 µM (inactive)
GI50 (A549): > 100 µM (inactive)
GI50 (UACC-62): > 100 µM (inactive)
GI50 (MOLT-4): > 100 µM (inactive)
GI50 (NCI-H460): > 100 µM (inactive)
GI50 (UACC-257): > 100 µM (inactive)
GI50 (OVCAR-4): > 100 µM (inactive)
GI50 (T47D): > 100 µM (inactive)
GI50 (M14): > 100 µM (inactive)
GI50 (OVCAR-8): > 100 µM (inactive)
GI50 (COLO 205): > 100 µM (inactive)
GI50 (SNB-19): > 100 µM (inactive)
GI50 (SK-MEL-5): > 100 µM (inactive)
